In one data set the test system is Baculovirus/HEK293. The note with it: for IC50: 24 h; for fold higher IC50 value compared to TAT-I24, baculovirus-transduced HEK293 cells: ratio to TAT-I24 IC50.
Data set [1] concerns mouse cytomegalovirus (MCMV)/NIH/3T3 cells. The note with it: 72 h.
For data set [2], the system named is red blood cells (RBC). As to the kind of experiment: RBC swelling (enlarged pellet after centrifugation). To be noted: peptides diluted in PBS (absence of serum), up to 20 µM, 1 h, pellet size after centrifugation.
In another data set the test system is plasmid-DNA (dsDNA). As to the kind of experiment: Fluorescence-based dsDNA-binding assay (SYBR Gold, plasmid DNA). The note with it: TAT-I24 as reference, three independent experiments in duplicates.
The test system of data set [3] is red blood cells (RBC). The note with it: RBC 1 h 37 °C; for haemolysis: OD 450 nm of supernatant. As to the method: Figure 4 Effect of peptides on haemolysis and RBC swelling. (A,B) RBCs were isolated and treated in conical 96-well plates with peptides diluted in PBS or in 10% donor serum for one hour. OD [450 nm] was determined in the supernatants after centrifugation of the plates. Mean ± SD from two experiments in triplicates are shown. […] Dashed lines indicate background OD. (C) Swelling of RBC after treatment with dilutions of peptides in PBS for one hour and centrifugation of the plates. Red wells indicate an enlarged cell pellet due to swelling of the RBCs. Sequences of the peptides are shown at the right and are indicated in red with the TAT fusion partner indicated in blue.
Whole blood was collected from a healthy volunteer after informed consent by venipuncture into K2E K2EDTA VacuetteTM tubes (Greiner Bio-One, Kremsmünster, Austria) with 4 mL blood. The assay for haemolysis was adapted from Sæbo et al. and performed as described previously. In brief, blood was centrifuged at 1000× g for 10 min, and plasma kept for further use, followed by resuspension of red blood cells (RBC) in PBS and centrifugation for three times. RBC were seeded at a cell number of 1 × 10^7 cells/100 µL PBS per well into conical 96-well plates (ThermoFisher, Darmstadt, Germany) and incubated with 100 µL of 1:2 peptide dilutions starting from 40 µM either in PBS or 10% donor serum. Plates were incubated at 37 °C for one hour before at 1000× g for 5 min. Supernatants were then transferred to flat 96-well plates and optical density (OD) was determined at 450 nm using a Glo-Max®-Multi Detection System (Promega, Mannheim, Germany). As positive control, cells were lysed with 0.5% Triton X-100. Images from centrifuged plates were taken using a Kodak PIXPRO camera (Rochester, NY, USA).

In data set [4] the test system is DiO-labelled MCMV in NIH/3T3 cells. To be noted: previous study; cited from earlier work. An excerpt:
In contrast, the peptide TAT-M214, whi ...

Read-outs that look alike come from different tables or passages of the source. Positions of bridges follow the written chain, without caps; N, C: chain ends. Residues, ends and D or L forms follow the SMILES beside them. No end group written: not given here.

Method for plasmid-DNA (dsDNA): We also included the TAT peptide, which binds DNA [34, 35].
Peptides were incubated with plasmid-DNA in the presence of SYBR^TM Gold dye. Reduction in fluorescence indicates binding of peptides to DNA. […] Curve fitting was performed using GraphPad Prism software.
DNA binding assay was performed, as described previously [26].

As to `CC(C)C[C@H](NC(=O)[C@H](CS)NC(=O)[C@H](C)NC(=O)[C@H](Cc1ccc(O)cc1)NC(=O)[C@H](Cc1ccccc1)NC(=O)[C@H](C)NC(=O)[C@H](CC(C)C)NC(=O)[C@H](CCC(N)=O)NC(=O)[C@@H]1CCCN1C(=O)[C@@H]1CCCN1C(=O)[C@H](CCCNC(=N)N)NC(=O)[C@H](CCCNC(=N)N)NC(=O)[C@H](CCCNC(=N)N)NC(=O)[C@H](CCC(N)=O)NC(=O)[C@H](CCCNC(=N)N)NC(=O)[C@H](CCCNC(=N)N)NC(=O)[C@H](CCCCN)NC(=O)[C@H](CCCCN)NC(=O)[C@H](CCCNC(=N)N)NC(=O)CN)C(=O)N[C@@H](C)C(=O)N[C@@H](Cc1ccccc1)C(=O)N[C@@H](CS)C(=O)O` [TAT-M14] (H-GRKKRRQRRRPPQLAFYACLAFC-OH; N-terminus and C-terminus assumed), the values for the IC50 (with Baculovirus/HEK293; in data set [1]) were 34 nM and 2570 nM, respectively. For the same molecule, the RBC swelling entry with red blood cells (RBC) [2] is on record as “caused RBC swelling at higher concentrations”. For the same molecule, the “dsDNA-binding (reduction in SYBR Gold fluorescence)” value with plasmid-DNA (dsDNA) is “bind dsDNA”.
On to `CC(C)C[C@H](NC(=O)[C@H](CCC(N)=O)NC(=O)[C@@H]1CCCN1C(=O)[C@H](CO)NC(=O)[C@H](CS)NC(=O)[C@H](CCC(N)=O)NC(=O)[C@@H]1CCCN1C(=O)[C@@H]1CCCN1C(=O)[C@H](CCCNC(=N)N)NC(=O)[C@H](CCCNC(=N)N)NC(=O)[C@H](CCCNC(=N)N)NC(=O)[C@H](CCC(N)=O)NC(=O)[C@H](CCCNC(=N)N)NC(=O)[C@H](CCCNC(=N)N)NC(=O)[C@H](CCCCN)NC(=O)[C@H](CCCCN)NC(=O)[C@H](CCCNC(=N)N)NC(=O)CN)C(=O)N[C@@H](C)C(=O)N1CCC[C@H]1C(=O)N[C@@H](Cc1ccccc1)C(=O)N[C@@H](CS)C(=O)O` [TAT-M41] (H-GRKKRRQRRRPPQCSPQLAPFC-OH; N-terminus and C-terminus assumed), for which, in the data set with Baculovirus/HEK293, the IC50 (usually the concentration that gives 50% inhibition) was found to be 434 nM and the “fold higher IC50 value compared to TAT-I24, baculovirus-transduced HEK293 cells” value is reported as “approximately 20 fold”. Also, in the data set on red blood cells (RBC) [2], the RBC swelling result is reported as “did not cause RBC swelling in the absence of serum even at 20 µM”. Moreover, the “dsDNA-binding (reduction in SYBR Gold fluorescence)” value with plasmid-DNA (dsDNA) is “less dsDNA-binding”.
On to `CC(C)C[C@H](NC(=O)[C@H](CO)NC(=O)[C@H](CC(C)C)NC(=O)[C@H](CCC(N)=O)NC(=O)[C@H](CS)NC(=O)[C@H](CCC(N)=O)NC(=O)[C@@H]1CCCN1C(=O)[C@@H]1CCCN1C(=O)[C@H](CCCNC(=N)N)NC(=O)[C@H](CCCNC(=N)N)NC(=O)[C@H](CCCNC(=N)N)NC(=O)[C@H](CCC(N)=O)NC(=O)[C@H](CCCNC(=N)N)NC(=O)[C@H](CCCNC(=N)N)NC(=O)[C@H](CCCCN)NC(=O)[C@H](CCCCN)NC(=O)[C@H](CCCNC(=N)N)NC(=O)CN)C(=O)N[C@@H](C)C(=O)N1CCC[C@H]1C(=O)N[C@@H](Cc1ccc(O)cc1)C(=O)N[C@@H](CS)C(=O)O` [TAT-M42] (H-GRKKRRQRRRPPQCQLSLAPYC-OH; N-terminus and C-terminus assumed), for which, in the data set with Baculovirus/HEK293, 378 nM corresponded to half-maximal inhibition (IC50) and the “fold higher IC50 value compared to TAT-I24, baculovirus-transduced HEK293 cells” value is given as “approximately 20 fold”. In addition, the RBC swelling result in the data set on red blood cells (RBC) [2] is “did not cause RBC swelling in the absence of serum even at 20 µM”. The “dsDNA-binding (reduction in SYBR Gold fluorescence)” value in the data set with plasmid-DNA (dsDNA) is “less dsDNA-binding”.
The matching figures for `CC(C)C[C@H](NC(=O)[C@H](CO)NC(=O)[C@H](CS)NC(=O)[C@H](CCC(N)=O)NC(=O)[C@@H]1CCCN1C(=O)[C@@H]1CCCN1C(=O)[C@H](CCCNC(=N)N)NC(=O)[C@H](CCCNC(=N)N)NC(=O)[C@H](CCCNC(=N)N)NC(=O)[C@H](CCC(N)=O)NC(=O)[C@H](CCCNC(=N)N)NC(=O)[C@H](CCCNC(=N)N)NC(=O)[C@H](CCCCN)NC(=O)[C@H](CCCCN)NC(=O)[C@H](CCCNC(=N)N)NC(=O)CN)C(=O)N[C@@H](C)C(=O)N1CCC[C@H]1C(=O)N[C@@H](C)C(=O)N[C@@H](CC(N)=O)C(=O)N[C@H](C(=O)N[C@@H](CS)C(=O)O)[C@@H](C)O` [TAT-M43] (H-GRKKRRQRRRPPQCSLAPANTC-OH; N-terminus and C-terminus assumed): 306 nM, “approximately 20 fold”, “did not cause RBC swelling in the absence of serum even at 20 µM” and “less dsDNA-binding”.
Regarding `CC(C)C[C@H](NC(=O)[C@H](C)NC(=O)[C@H](Cc1ccc(O)cc1)NC(=O)[C@H](Cc1ccccc1)NC(=O)[C@H](C)NC(=O)[C@H](CC(C)C)NC(=O)[C@H](Cc1ccc(O)cc1)NC(=O)[C@@H]1CCCN1C(=O)[C@H](CCCNC(=N)N)NC(=O)[C@H](CCCNC(=N)N)NC(=O)[C@H](CCCNC(=N)N)NC(=O)[C@H](CCC(N)=O)NC(=O)[C@H](CCCNC(=N)N)NC(=O)[C@H](CCCNC(=N)N)NC(=O)[C@H](CCCCN)NC(=O)[C@H](CCCCN)NC(=O)[C@H](CCCNC(=N)N)NC(=O)CN)C(=O)N[C@@H](C)C(=O)N[C@@H](Cc1ccccc1)C(=O)N[C@@H](Cc1ccc(O)cc1)C(=O)N[C@@H](C)C(=O)N[C@@H](CS)C(=O)O` [TAT-M214] (H-GRKKRRQRRRPYLAFYALAFYAC-OH), the haemolysis was 14% in the data set with red blood cells (RBC) [3] (2.5 µM peptide diluted in PBS); 29% with red blood cells (RBC) [3] (5 µM peptide diluted in PBS); 37% in the data set on red blood cells (RBC) [3] (10 µM peptide diluted in PBS); 43% in the data set with red blood cells (RBC) [3] (20 µM peptide diluted in PBS, two experiments in triplicates). Moreover, the “haemolysis in the presence of 10% serum” value in the data set with red blood cells (RBC) [3] (peptide diluted in 10% donor serum) was “not in the presence of 10% serum”. Further, the IC50 in the data set on Baculovirus/HEK293 was 25 nM; in data set [1], 3670 nM. The RBC swelling entry with red blood cells (RBC) [2] is on record as “caused RBC swelling at higher concentrations”.
As for “CLAFYACF (disulfide 1-7 (inferred)) [C22del_cyc, TAT-I24 with a cyclized I24 peptide (CLAFYACF), cyclized via the two cysteine residues; previous study]”, in data set [4], the “effect on localization of DiO-labelled MCMV” value is “no effect on localization of DiO-labelled MCMV”.

Source of the values: paper PMC12692169, “Identification of Novel TAT-I24-Related Peptides with Antiviral Activities” (International Journal of Molecular Sciences, 2025).
